Drawing on US12310975B2, “Modulators of BCL6 proteolysis and associated methods of use” (Arvinas Operations, Inc., priority 2019, dated 2025), this text covers EC50, IC50 and Dmax for twelve compounds.

A value given as a limit tells only on which side of the number the result lay.

Assay [1] has as its target T1, BCL6 (Homo sapiens (Human), UniProt P41182). Kind of assay: BCL6 TR-FRET assay (BCL6-Avitag-Biotin / BCoR-Cy5 peptide). It is filed as binding. Summed up: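 After 30 min room-temperature preincubation of compound titrations with 2 nM biotinylated BCL6-Avitag, 100 nM Cy5-labelled BCoR peptide plus 2 nM Eu-streptavidin were added and TR-FRET read 2 h later. HEPES pH 7.5/125 mM NaCl buffer with Triton X, glutathione (or DTT) and BSA.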

The target of assay [2] is T1, BCL6. Kind of assay: Immunofluorescence high content imaging of BCL6 degradation in T47D cells. As to conditions: for Dmax: T47D. It is filed as cell-based. In outline: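 T47D, 3 d compound exposure, 11-pt 3-fold series, top 0.1 or 1 μM final. Fix 4% PFA, Triton permeabilize, anti-BCL6 primary overnight 4 °C, Alexa-488 secondary. High-content imaging 10×, 4 fields/well, top-hat smoothing.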

`CNC(=O)COc1cc2cc(Nc3nc(N4CCC(C(C)(C)N5CCN(c6ccc7c(c6)C(=O)N(C6CCC(=O)NC6=O)C7=O)CC5)CC4)ncc3Cl)ccc2n(C)c1=O` (centres unmarked) [compound 200, 2-((6-((5-chloro-2-(4-(2-(4-(2-(2,6-dioxopiperidin-3-yl)-1,3-dioxoisoindolin-5-yl)piperazin-1-yl)propan-2-yl)piperidin-1-yl)pyrimidin-4-yl)amino)-1-methyl-2-oxo-1,2-dihydroquinolin-3-yl)oxy)-N-methylacetamide]: the EC50 (usually the concentration needed to bring the measured effect to its halfway point) on BCL6 [1] was more than 100 nM. In addition, on BCL6 [2], the IC50 (commonly the concentration needed to halve the response being measured) was 10 to 50 nM and the Dmax (in general, the largest share of the target that was removed) was 50 to 70%.
In the same order, the values of `CNC(=O)COc1cc2cc(Nc3nc(N4CCN(CC5CCN(c6ccc7c(c6)C(=O)N(C6CCC(=O)NC6=O)C7=O)CC5)C(=O)C4)ncc3Cl)ccc2n(C)c1=O` (centres unmarked) [compound 201, 2-((6-((5-chloro-2-(4-((1-(2-(2,6-dioxopiperidin-3-yl)-1,3-dioxoisoindolin-5-yl)piperidin-4-yl)methyl)-3-oxopiperazin-1-yl)pyrimidin-4-yl)amino)-1-methyl-2-oxo-1,2-dihydroquinolin-3-yl)oxy)-N-methylacetamide] are 10 to 50 nM, not below 100 nM and not below 70%.
In the same order, the values of `CNC(=O)COc1cc2cc(Nc3nc(N4CCC(CN5CCN(c6ccc7c(c6)C(=O)N(C6CCC(=O)NC6=O)C7=O)CC5)CC4)ccc3Cl)ccc2n(C)c1=O` (centres unmarked) [compound 202, 2-((6-((3-chloro-6-(4-((4-(2-(2,6-dioxopiperidin-3-yl)-1,3-dioxoisoindolin-5-yl)piperazin-1-yl)methyl)piperidin-1-yl)pyridin-2-yl)amino)-1-methyl-2-oxo-1,2-dihydroquinolin-3-yl)oxy)-N-methylacetamide] are more than 100 nM, 50 to 100 nM and less than 50%.
In the same order, the values of `CNC(=O)COc1cc2cc(Nc3nc(N4CCN(C(C)(C)C5CCN(c6ccc7c(c6)C(=O)N(C6CCC(=O)NC6=O)C7=O)CC5)CC4)ncc3Cl)ccc2n(C)c1=O` (centres unmarked) [compound 203, 2-((6-((5-chloro-2-(4-(2-(1-(2-(2,6-dioxopiperidin-3-yl)-1,3-dioxoisoindolin-5-yl)piperidin-4-yl)propan-2-yl)piperazin-1-yl)pyrimidin-4-yl)amino)-1-methyl-2-oxo-1,2-dihydroquinolin-3-yl)oxy)-N-methylacetamide] are more than 100 nM, less than 10 nM and not below 70%.
`CNC(=O)COc1cc2cc(Nc3nc(N4CCC(CN5CC6CC5CN6c5ccc6c(c5)C(=O)N(C5CCC(=O)NC5=O)C6=O)CC4)ncc3Cl)ccc2n(C)c1=O` (centres unmarked) [compound 204, 2-((6-((5-chloro-2-(4-((5-(2-(2,6-dioxopiperidin-3-yl)-1,3-dioxoisoindolin-5-yl)-2,5-diazabicyclo [2.2.1]heptan-2-yl)methyl)piperidin-1-yl)pyrimidin-4-yl)amino)-1-methyl-2-oxo-1,2-dihydroquinolin-3-yl)oxy)-N-methylacetamide]: the 50% effective concentration (EC50) on BCL6 [1] is 10 to 50 nM. In addition, at BCL6 [2], the IC50 was less than 10 nM and the Dmax is less than 50%.
Compound `Cn1cc(-c2cc3cc(Nc4nc(N5CCC(CN6CCN(c7ccc8c(c7)C(=O)N(C7CCC(=O)NC7=O)C8=O)CC6)CC5)ncc4Cl)ccc3n(C)c2=O)cn1` (centres unmarked) [compound 205, 5-(4-((1-(5-chloro-4-((1-methyl-3-(1-methyl-1H-pyrazol-4-yl)-2-oxo-1,2-dihydroquinolin-6-yl)amino)pyrimidin-2-yl)piperidin-4-yl)methyl)piperazin-1-yl)-2-(2,6-dioxopiperidin-3-yl)isoindoline-1,3-dione] returned an EC50 on BCL6 [1] of more than 100 nM. Besides, the IC50 against BCL6 [2] is not below 100 nM.
As to `CC(=O)c1cc2cc(Nc3nc(N4CCC(CN5CCN(c6ccc7c(c6)C(=O)N(C6CCC(=O)NC6=O)C7=O)CC5)CC4)ncc3Cl)ccc2n(C)c1=O` (centres unmarked) [compound 206, 5-(4-((1-(4-((3-acetyl-1-methyl-2-oxo-1,2-dihydroquinolin-6-yl)amino)-5-chloropyrimidin-2-yl)piperidin-4-yl)methyl)piperazin-1-yl)-2-(2,6-dioxopiperidin-3-yl)isoindoline-1,3-dione], the 50% effective concentration (EC50) on BCL6 [1] was more than 100 nM. On BCL6 [2], this compound came in with an IC50 of 50 to 100 nM.
`CNC(=O)COc1cc2cc(Nc3nc(N4CCN(CC5CCN(c6cccc7c6C(=O)N(C6CCC(=O)NC6=O)C7=O)CC5)CC4)ncc3Cl)ccc2n(C)c1=O` (centres unmarked) [compound 207, 2-((6-((5-chloro-2-(4-((1-(2-(2,6-dioxopiperidin-3-yl)-1,3-dioxoisoindolin-4-yl)piperidin-4-yl)methyl)piperazin-1-yl)pyrimidin-4-yl)amino)-1-methyl-2-oxo-1,2-dihydroquinolin-3-yl)oxy)-N-methylacetamide] displayed a concentration giving a half-maximal response (EC50) at BCL6 [1] of 10 to 50 nM. At BCL6 [2], this compound had an IC50 of less than 10 nM and a Dmax not below 70%.
For the compound `CNC(=O)COc1cc2cc(Nc3nc(N4CCCN(c5ccc6c(c5)C(=O)N(C5CCC(=O)NC5=O)C6=O)CC4)ncc3Cl)ccc2n(C)c1=O` (centres unmarked) [compound 208, 2-((6-((5-chloro-2-(4-(2-(2,6-dioxopiperidin-3-yl)-1,3-dioxoisoindolin-5-yl)-1,4-diazepan-1-yl)pyrimidin-4-yl)amino)-1-methyl-2-oxo-1,2-dihydroquinolin-3-yl)oxy)-N-methylacetamide], at BCL6 [1], the 50% effective concentration (EC50) was in the range of 50 to 100 nM. At BCL6 [2], this compound showed an IC50 of 50 to 100 nM and a Dmax of 50 to 70%.
Turning to `CONC(=O)COc1cc2cc(Nc3nc(N4CCC(CN5CCN(c6ccc7c(c6)C(=O)N(C6CCC(=O)NC6=O)C7=O)CC5)CC4)ncc3Cl)ccc2n(C)c1=O` (centres unmarked) [compound 209, 2-((6-((5-chloro-2-(4-((4-(2-(2,6-dioxopiperidin-3-yl)-1,3-dioxoisoindolin-5-yl)piperazin-1-yl)methyl)piperidin-1-yl)pyrimidin-4-yl)amino)-1-methyl-2-oxo-1,2-dihydroquinolin-3-yl)oxy)-N-methoxyacetamide], the EC50 on BCL6 [1] is more than 100 nM. At BCL6 [2], this compound gave an IC50 of 10 to 50 nM and a maximal degradation (Dmax) not below 70%.
On to `CNC(=O)[C@@H](C)Oc1cc2cc(Nc3nc(N4CCC(CN5CCN(c6ccc7c(c6)C(=O)N([C@H]6CCC(=O)NC6=O)C7=O)CC5)CC4)ncc3Cl)ccc2n(C)c1=O` [compound 210, (R)-2-((6-((5-chloro-2-(4-((4-(2-((S)-2,6-dioxopiperidin-3-yl)-1,3-dioxoisoindolin-5-yl)piperazin-1-yl)methyl)piperidin-1-yl)pyrimidin-4-yl)amino)-1-methyl-2-oxo-1,2-dihydroquinolin-3-yl)oxy)-N-methylpropanamide], for which the EC50 on BCL6 [1] lay in the range of 10 to 50 nM. Also, the IC50 against BCL6 [2] was not below 100 nM.
Take `CNC(=O)[C@H](C)Oc1cc2cc(Nc3nc(N4CCC(CN5CCN(c6ccc7c(c6)C(=O)N([C@H]6CCC(=O)NC6=O)C7=O)CC5)CC4)ncc3Cl)ccc2n(C)c1=O` [compound 211, (S)-2-((6-((5-chloro-2-(4-((4-(2-((S)-2,6-dioxopiperidin-3-yl)-1,3-dioxoisoindolin-5-yl)piperazin-1-yl)methyl)piperidin-1-yl)pyrimidin-4-yl)amino)-1-methyl-2-oxo-1,2-dihydroquinolin-3-yl)oxy)-N-methylpropanamide]: the EC50 at BCL6 [1] was more than 100 nM. At BCL6 [2], the IC50 was not below 100 nM.
